In ChEMBL document CHEMBL1201862, “PubChem BioAssay data set” (2004):
Active and inactive are the calls of the source.

Assays:
[1] = viability of uninfected HEp-2 cells – cell-based, HTS, cytotoxicity control for RSV inhibitor project, dose response (AID 2410); type: functional; conditions: human respiratory syncytial virus
[2] = biological target: T1, Replicative DNA helicase DnaB (Mycobacterium tuberculosis, UniProt P9WMR3); assay: DnaB intein splicing inhibitors, dose response, biochemical, cell-free fluorescence (AID 449749); type: functional
T1 sequence (P9WMR3 whole entry): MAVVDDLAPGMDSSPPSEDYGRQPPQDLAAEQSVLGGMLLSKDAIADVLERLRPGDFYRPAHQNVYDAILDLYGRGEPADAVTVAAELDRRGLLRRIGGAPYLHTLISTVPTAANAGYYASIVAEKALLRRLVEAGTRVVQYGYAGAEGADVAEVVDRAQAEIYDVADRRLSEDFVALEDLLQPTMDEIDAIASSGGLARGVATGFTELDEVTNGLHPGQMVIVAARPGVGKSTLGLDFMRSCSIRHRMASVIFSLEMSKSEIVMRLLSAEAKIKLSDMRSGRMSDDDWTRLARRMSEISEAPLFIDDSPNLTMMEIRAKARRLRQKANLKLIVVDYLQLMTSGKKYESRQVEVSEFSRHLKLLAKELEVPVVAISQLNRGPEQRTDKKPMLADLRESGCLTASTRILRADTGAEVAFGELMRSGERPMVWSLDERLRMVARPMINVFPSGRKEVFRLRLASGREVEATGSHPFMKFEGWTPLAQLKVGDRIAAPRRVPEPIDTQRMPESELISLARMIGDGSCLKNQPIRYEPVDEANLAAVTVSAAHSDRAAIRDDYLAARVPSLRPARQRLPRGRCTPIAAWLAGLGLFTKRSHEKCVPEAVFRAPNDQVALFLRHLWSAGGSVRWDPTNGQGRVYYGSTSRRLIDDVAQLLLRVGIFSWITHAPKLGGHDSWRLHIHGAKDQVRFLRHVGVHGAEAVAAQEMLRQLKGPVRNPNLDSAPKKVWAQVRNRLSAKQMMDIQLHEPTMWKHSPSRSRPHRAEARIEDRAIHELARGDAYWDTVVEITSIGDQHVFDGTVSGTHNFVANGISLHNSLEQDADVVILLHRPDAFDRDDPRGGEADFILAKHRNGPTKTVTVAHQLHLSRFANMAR

[3] = biological target: T2, Protein RecA (Mycobacterium tuberculosis, UniProt P9WHJ3); assay: Fluorescence Cell-Free Homogeneous Dose Retest to Identify Inhibitors of RecA-Intein Splicing Activity. [Related pubchem assays (depositor defined):AID2097, AID2223, AID489010, AID492950]; type: functional
T2 sequence (P9WHJ3 whole entry): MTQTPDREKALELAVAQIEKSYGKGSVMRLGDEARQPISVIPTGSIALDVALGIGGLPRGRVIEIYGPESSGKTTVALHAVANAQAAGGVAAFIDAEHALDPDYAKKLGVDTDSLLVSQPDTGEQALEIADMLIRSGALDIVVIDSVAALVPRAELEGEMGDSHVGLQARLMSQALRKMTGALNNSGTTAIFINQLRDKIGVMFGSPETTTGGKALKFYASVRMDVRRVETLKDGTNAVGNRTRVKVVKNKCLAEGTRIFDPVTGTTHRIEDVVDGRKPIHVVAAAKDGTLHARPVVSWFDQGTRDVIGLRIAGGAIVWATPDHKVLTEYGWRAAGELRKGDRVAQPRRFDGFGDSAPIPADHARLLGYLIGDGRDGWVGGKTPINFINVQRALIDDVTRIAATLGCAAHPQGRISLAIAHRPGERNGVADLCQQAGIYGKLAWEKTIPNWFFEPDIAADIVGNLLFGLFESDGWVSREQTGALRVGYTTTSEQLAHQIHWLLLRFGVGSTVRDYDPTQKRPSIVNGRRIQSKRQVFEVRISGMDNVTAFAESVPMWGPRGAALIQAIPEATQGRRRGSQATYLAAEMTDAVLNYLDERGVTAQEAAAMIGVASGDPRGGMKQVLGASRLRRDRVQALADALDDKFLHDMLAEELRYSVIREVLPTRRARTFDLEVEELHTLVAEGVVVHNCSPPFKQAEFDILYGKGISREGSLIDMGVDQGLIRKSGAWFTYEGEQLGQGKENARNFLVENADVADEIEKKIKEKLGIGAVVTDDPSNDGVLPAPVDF

[4] = biological target: T3, RNA-binding protein pos-1 (Caenorhabditis elegans, UniProt G5EF15); assay: disruptors of C. elegans POS-1 RNA interaction – biochemical, fluorescence polarization, dose response (AID 1964);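 further: purified POS-1 fused to maltose binding protein made in E. coli; potency of compounds blocking POS-1 binding to fluorescent RNA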
T3 sequence (G5EF15 whole entry): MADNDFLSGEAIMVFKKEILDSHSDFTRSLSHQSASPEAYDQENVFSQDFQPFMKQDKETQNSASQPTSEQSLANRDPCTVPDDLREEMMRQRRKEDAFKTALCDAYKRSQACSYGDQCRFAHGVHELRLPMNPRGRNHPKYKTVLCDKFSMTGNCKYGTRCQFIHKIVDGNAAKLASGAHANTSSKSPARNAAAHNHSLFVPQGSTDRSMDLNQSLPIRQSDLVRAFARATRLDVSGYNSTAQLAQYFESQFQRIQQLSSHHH

[5] = biological target: T4, Zinc finger protein mex-5 (Caenorhabditis elegans, UniProt Q9XUB2); assay: potency of MEX-5 RNA-binding blockers – biochemical, C. elegans, fluorescence polarization, dose response (AID 1960)
T4 sequence (Q9XUB2 whole entry): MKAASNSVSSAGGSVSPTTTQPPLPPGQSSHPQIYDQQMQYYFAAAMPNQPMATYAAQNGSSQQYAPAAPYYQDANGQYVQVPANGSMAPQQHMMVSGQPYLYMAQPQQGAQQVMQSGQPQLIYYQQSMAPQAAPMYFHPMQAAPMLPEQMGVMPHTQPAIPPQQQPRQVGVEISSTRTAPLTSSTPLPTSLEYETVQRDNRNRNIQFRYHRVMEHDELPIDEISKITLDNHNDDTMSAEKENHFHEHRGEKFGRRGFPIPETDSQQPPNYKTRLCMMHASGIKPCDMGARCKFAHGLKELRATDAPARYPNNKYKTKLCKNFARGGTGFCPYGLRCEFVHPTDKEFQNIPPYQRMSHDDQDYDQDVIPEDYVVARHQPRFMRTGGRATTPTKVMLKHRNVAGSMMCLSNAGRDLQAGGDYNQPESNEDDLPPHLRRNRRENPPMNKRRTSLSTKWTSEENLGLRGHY

[6] = NIH-3T3 fibroblast cytotoxicity, dose response, cytotoxicity control, cell-based, fluorescence, Alamar Blue, secondary assay (AID 2327); type: functional;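 further: NIH-3T3 mouse fibroblasts cultured with fluconazole at 8 µg/mL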
[7] = test system: Streptococcus sp. 'group A'; assay: Streptococcus pyogenes SK(-)GAS viability under kanamycin – luminescence, BacTiterGlo, confirmation, counter-screen for streptokinase expression inhibitor project, dose response (AID 1900); type: functional, organism-based
[8] = biological target: T5, Streptokinase A (Streptococcus pyogenes serotype M1, UniProt P10520); assay: viability-normalized secreted streptokinase activity reduction – plasminogen activation absorbance, OD405, dose response (AID 1914); type: functional, Streptococcus pyogenes M1 GAS;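 further: secreted streptokinase activity via plasminogen activation per viability signal from cell pellet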
T5 sequence (P10520 whole entry): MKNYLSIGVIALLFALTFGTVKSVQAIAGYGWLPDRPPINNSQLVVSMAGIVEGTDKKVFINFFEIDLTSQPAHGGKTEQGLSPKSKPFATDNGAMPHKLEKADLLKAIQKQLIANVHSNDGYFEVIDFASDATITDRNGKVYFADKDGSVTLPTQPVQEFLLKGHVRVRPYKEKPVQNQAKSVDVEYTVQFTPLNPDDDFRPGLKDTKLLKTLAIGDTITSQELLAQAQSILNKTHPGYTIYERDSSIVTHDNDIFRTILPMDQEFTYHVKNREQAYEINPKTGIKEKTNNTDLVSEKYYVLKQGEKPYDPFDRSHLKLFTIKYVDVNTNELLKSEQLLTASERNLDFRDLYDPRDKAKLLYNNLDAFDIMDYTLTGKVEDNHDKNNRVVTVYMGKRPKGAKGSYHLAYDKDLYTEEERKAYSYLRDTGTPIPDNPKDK

[9] = test system: Streptococcus; assay: GAS UMAA2166 growth inhibition – luminescence, BacTiterGlo, counter-screen for streptokinase expression inhibitor project, dose response (AID 1915); type: functional, organism-based;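 further: potency for reduction of bacterial viability or growth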
[10] = Luminescence Cell-Based Dose Response HTS to Identify Activators of Luciferase Translation or Activity in H4 […] Cells. [Related pubchem assays: 1829 (Project Summary), 1814 (Primary HTS)]; type: functional
[11] = test system: H4; assay: Luminescence Cell-Based Dose Response HTS to Identify Activators of 5'UTR Stem-Loop Driven Prion Protein mRNA Translation in H4 Neuroglioblastoma Cells. [Related pubchem assays: 1829 (Project Summary), 1814 (Primary HTS)]; type: functional; conditions: Homo sapiens
[12] = biological target: T6, Heat shock factor protein 1 (Mus musculus, UniProt P38532); assay: decrease of HSF1-responsive luciferase luminescence – cell-based, NIH3T3, dose retest, confirmation (AID 2382); type: functional;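 further: NIH3T3 fibroblasts with HSF1-driven luciferase reporter stressed by proteasome inhibitor MG132; luminescence from HSF1-driven luciferase expression after 8 hours of MG132 stress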
T6 sequence (P38532 whole entry): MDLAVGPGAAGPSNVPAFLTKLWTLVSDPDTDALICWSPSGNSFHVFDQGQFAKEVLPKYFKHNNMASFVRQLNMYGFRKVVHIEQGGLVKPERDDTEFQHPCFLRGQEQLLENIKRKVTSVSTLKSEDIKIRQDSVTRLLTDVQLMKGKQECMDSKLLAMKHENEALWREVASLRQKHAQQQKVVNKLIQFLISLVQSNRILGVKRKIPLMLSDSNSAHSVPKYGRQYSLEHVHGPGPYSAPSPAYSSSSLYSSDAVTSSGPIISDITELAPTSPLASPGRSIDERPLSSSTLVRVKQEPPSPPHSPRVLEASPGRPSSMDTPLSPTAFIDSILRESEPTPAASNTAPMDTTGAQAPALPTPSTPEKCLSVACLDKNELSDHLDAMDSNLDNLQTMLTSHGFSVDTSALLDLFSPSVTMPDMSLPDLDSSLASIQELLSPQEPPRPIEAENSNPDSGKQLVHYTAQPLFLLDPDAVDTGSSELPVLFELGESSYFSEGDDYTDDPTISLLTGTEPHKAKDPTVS

[13] = reduction of Shn3 3'UTR-driven luciferase in osteoblasts – cell-based, Clone20 osteoblasts, firefly luciferase, cherry-picked, dose response (AID 624132); type: functional;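 further: firefly luciferase luminescence from reporter carrying the Shn3 3'UTR in osteoblasts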
[14] = non-specific 3'UTR reporter inhibition in Clone20-Shn3RL – cell-based, Renilla luciferase, cherry-picked, counter-screen for Shn3 inhibitor project, dose response (AID 624133); type: functional

Row | Compound | CC50 [1] | AC50 [2] | EC50 [3] | other results
1 | CCc1ccc(Nc2nnc(SCc3cc(=O)n4ccsc4n3)s2)cc1 | 26.4 µM (active) |  |  | 
2 | Cc1c(-c2nn(C)c(=O)c3ccccc23)oc2ccc(F)cc2c1=O |  | 3.86 µM (active) | 2.51 µM (active) | 
3 | CN(CC(=O)Nc1ccc(N2CCOCC2)cc1)CC(=O)Nc1cccc(C#N)c1 |  | 199 µM (active) | > 380 µM (inactive) | 
4 | CCCCC1=CC2=C(c3ccco3)C(=O)C(C)(OC(=O)c3ccc(OC)cc3)C(=O)C2=CN1C1CCCC1 (centres undefined) |  |  |  | EC50 [4]: 16 µM (active); EC50 [5]: 14.3 µM (active)
5 | c1ccc(-c2ccc(C3=Nn4c(nnc4-c4cccs4)SC3)cc2)cc1 | 16.6 µM (active) |  |  | 
6 | O=C(CSC1=NCCS1)Nc1ccc(S(=O)(=O)NC2CCCCC2)cc1 |  |  | 13.3 µM (active) | 
7 | CN(c1ccccc1)S(=O)(=O)c1cccc(NC(=O)c2cccc(C#N)c2)c1 | 16.1 µM (active) |  |  | 
8 | Cc1ccc(S(=O)(=O)N2CCN(C(=O)c3ccc(N4CCCCC4)c([N+](=O)[O-])c3)CC2)cc1 | > 50 µM (active) |  |  | 
9 | Cc1cc(NC(=O)COC(=O)[C@@H](NS(=O)(=O)c2ccc(Br)cc2)C(C)C)no1 |  |  |  | EC50 [6]: > 150 µM (inactive)
10 | COC(=O)CC1=NN(c2ccccc2)C(=O)C1 |  | 13.2 µM (active) | 4.42 µM (active) | 
11 | CN1C(=O)N(C)c2cccc3cccc1c23 | 22.5 µM (active) |  |  | 
12 | O=C(c1ccc(Br)s1)N1CCN(c2ccccn2)CC1 |  |  |  | EC50 [4]: > 300 µM (not active); EC50 [5]: > 300 µM (not active)
13 | CCc1cc(C(=O)c2ccc(C)cc2)c(NC(=O)CCl)s1 |  | 3.98 µM (active) | 1.07 µM (active) | 
14 | Cc1ccc(C2C(C#N)=C(N)Oc3[nH]nc(-c4cccnc4)c32)o1 (centres undefined) |  | 25.6 µM (active) | 6.46 µM (active) | 
15 | O=S(=O)(c1ccccc1F)N1CCC(c2nc(O)c3nnn(Cc4ccc(F)cc4)c3n2)CC1 | 27 µM (active) |  |  | 
16 | O=C1CCSc2ccc(Cl)cc2N1Cc1ccc(Cl)cc1 | 23.4 µM (active) |  |  | EC50 [7]: 7.8 µM (active); EC50 [8]: 18.4 µM (active); EC50 [9]: 49.5 µM (active)
17 | Cc1ccc([N+](=O)[O-])cc1S(=O)(=O)N(C(=O)c1ccncc1)c1ccc2oc3c(c2c1)CCCC3 |  | 42 µM (active) | 10.8 µM (active) | 
18 | CC(=O)Nc1ccc(NC(=O)CSc2ccc3nnc(CCNS(=O)(=O)c4ccc(C)cc4)n3n2)cc1 |  |  |  | EC50 [6]: > 160 µM (inactive)
19 | CCSC1=NC(/C=C/c2ccc(Cl)cc2Cl)=CC(C)(C)N1 | 18 µM (active) |  |  | 
20 | Cc1nn(Cc2ccccc2)c2c1C(c1ccccc1)C(C#N)=C(N)O2 (centres undefined) |  | 8.53 µM (active) | 3.64 µM (active) | 
21 | Cc1ccc(C)c(N2CCN(S(=O)(=O)c3ccc(-c4cc(C)no4)s3)CC2)c1 | > 50 µM (active) |  |  | 
22 | CC(C)(c1ccccc1)c1ccc(OCC2CO2)cc1 (centres undefined) |  | 10 µM (active) | 11.9 µM (active) | 
23 | Cn1nc(C(F)(F)F)c2cc(C(=O)Nc3ccc(Cl)cc3)sc21 | 21.4 µM (active) |  |  | 
24 | COC(=O)Cc1n[nH]c2c1C(c1ccc(O)c(OC)c1)C(C#N)=C(N)O2 (centres undefined) |  | 7.51 µM (inconclusive) | 2.88 µM (active) | 
25 | O=C(CNC(=O)c1ccc(F)cc1)c1ccc(Cl)cc1 |  |  |  | EC50 [10]: 0.717 µM (active); EC50 [11]: 79 µM (active)
26 | C=CC/N=C1/S/C(=C/c2cccc([N+](=O)[O-])c2)C(=O)N1CC=C | 28 µM (active) |  |  | 
27 | COCCN1Cc2cccc(C(=O)Nc3ccc4c(c3)OCCO4)c2C1=O |  |  |  | EC50 [12]: 11.6 µM (active); AC50 [13]: 27.1 µM (active); AC50 [14]: 19.1 µM (active)
